# According to PubChem BioAssay AID1671316:
# Molecular target: Tyrosine-protein kinase Lck (Homo sapiens) (UniProt P06239)
# Experiment: PubChem AID 1671316
# Details: Z'-LYTE FRET kinase assay, recombinant LCK
# Chain of Tyrosine-protein kinase Lck (Homo sapiens) (P06239 whole entry, looked up): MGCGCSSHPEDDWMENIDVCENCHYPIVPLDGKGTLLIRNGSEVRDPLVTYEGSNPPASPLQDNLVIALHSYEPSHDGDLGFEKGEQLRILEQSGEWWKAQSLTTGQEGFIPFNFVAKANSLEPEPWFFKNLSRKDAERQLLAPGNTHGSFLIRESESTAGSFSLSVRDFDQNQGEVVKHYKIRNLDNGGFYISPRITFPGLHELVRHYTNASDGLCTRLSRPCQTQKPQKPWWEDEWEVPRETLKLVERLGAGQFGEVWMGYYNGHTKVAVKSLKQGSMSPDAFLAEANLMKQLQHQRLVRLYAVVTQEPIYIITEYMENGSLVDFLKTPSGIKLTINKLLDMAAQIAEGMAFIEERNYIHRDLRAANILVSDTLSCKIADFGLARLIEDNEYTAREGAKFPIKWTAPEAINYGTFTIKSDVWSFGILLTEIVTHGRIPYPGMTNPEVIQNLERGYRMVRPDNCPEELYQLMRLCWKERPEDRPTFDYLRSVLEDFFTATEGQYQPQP
structure (smiles),measurement,value
COc1cc2ncnc(Nc3cccc(Cl)c3)c2cc1OC,IC50,0.799 µM
